This is an account of results in US11872312B2, “Neuroprotective liposome compositions and methods for treatment of stroke” (The Board of Regents of The University of Texas System, priority 2012, dated 2024).

For data set [1], the target named is tPA activity on porcine blood clot (Homo sapiens, UniProt P00750). Description: Thrombolytic efficiency of tPA on porcine blood clot in presence of Xe-ELIP or free Xe. As to conditions: 30 minute incorporation with tPA. How it is done:
Neuroprotective combination therapy may minimize the harmful effects of ischemic neuronal damage. […] The thrombolytic effect of tPA was inhibited after 30 minute incorporation with free Xe (Xe saturated solution).

In data set [2] the test system is murine embryonic stem cells. Briefly: LDH release cytotoxicity test in stem cells. Conditions: 3 mg ELIP/30 μl gas/ml for 4 hours; H2O2 10 mM for 2 hours.
Procedure: Cells were treated with Xe-reagents (3 mg ELIP/30 μl gas/ml) and control medium for 4 hours, and 2 hours before the end of cultures; 10 mM H2O2 was added.
The cell viability was determined by assessing the release of LDH.

SMILES strings stand for the structures.

tPA activity on porcine blood clot, sequence (P00750 36-562): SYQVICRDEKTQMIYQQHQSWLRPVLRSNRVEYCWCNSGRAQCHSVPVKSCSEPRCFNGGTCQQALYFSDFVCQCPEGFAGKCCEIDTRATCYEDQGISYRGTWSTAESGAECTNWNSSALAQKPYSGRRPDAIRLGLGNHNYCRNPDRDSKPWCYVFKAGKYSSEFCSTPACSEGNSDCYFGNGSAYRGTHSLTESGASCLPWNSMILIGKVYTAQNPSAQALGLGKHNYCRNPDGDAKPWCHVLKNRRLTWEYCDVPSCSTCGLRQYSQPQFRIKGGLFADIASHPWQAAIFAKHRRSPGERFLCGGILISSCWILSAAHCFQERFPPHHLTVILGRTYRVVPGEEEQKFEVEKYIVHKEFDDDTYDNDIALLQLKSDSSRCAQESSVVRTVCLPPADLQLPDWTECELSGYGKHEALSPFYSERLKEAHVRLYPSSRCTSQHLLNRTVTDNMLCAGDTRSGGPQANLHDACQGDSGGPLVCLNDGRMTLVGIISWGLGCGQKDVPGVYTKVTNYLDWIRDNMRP

Turning to `[Xe]` [free Xe], in data set [1], the “thrombolytic effect of tPA” value is reported as “inhibited”. For the compound `OO` [H2O2, Hydrogen Peroxide], the “LDH release (cytotoxicity)” value in data set [2] was “significant LDH release”.
